Series [1] relates to HUVEC. Put plainly: Antiangiogenesis activity in HUVEC assessed as inhibition of VEGF-induced tube formation at 25 uM. The note with it: Homo sapiens. The class given is functional, cell-based.
In series [2] the test system is HUVEC. As to the kind of experiment: Cytotoxicity in HUVEC assessed as reduction in cell viability up to 50 uM. Particulars: human. The class given is cell-based.
The next series relates to LLC-PK1. Put plainly: Renoprotective activity in pig LLC-PK1 cells assessed as inhibition of cisplatin-induced nephrotoxicity at 100 to 200 uM preincubated for 2 hrs followed by cisplatin challenge measured after 24 hrs by MTT assay. The class given is functional, cell-based. The note with it: Sus scrofa.
The test system of series [3] is HUVEC. As to the kind of experiment: Antiangiogenesis activity in HUVEC assessed as inhibition of VEGF-induced tube formation at 50 uM. The class given is functional, cell-based. The note with it: Homo sapiens.
Series [4] is described as follows: Antioxidant activity of the compound assessed as DPPH radical scavenging activity by colorimetric method. The class given is physicochemical.
Series [5] has as its target Acetylcholinesterase (Homo sapiens) (UniProt P22303). As to the kind of experiment: Inhibition of acetylcholine esterase (unknown origin) up to 200 uM by Ellman's colorimetric method.

Molecules are shown by their SMILES. Activity calls are given as the source filed them. The rule behind the calls is not given here.

Acetylcholinesterase (Homo sapiens), sequence (P22303 whole entry): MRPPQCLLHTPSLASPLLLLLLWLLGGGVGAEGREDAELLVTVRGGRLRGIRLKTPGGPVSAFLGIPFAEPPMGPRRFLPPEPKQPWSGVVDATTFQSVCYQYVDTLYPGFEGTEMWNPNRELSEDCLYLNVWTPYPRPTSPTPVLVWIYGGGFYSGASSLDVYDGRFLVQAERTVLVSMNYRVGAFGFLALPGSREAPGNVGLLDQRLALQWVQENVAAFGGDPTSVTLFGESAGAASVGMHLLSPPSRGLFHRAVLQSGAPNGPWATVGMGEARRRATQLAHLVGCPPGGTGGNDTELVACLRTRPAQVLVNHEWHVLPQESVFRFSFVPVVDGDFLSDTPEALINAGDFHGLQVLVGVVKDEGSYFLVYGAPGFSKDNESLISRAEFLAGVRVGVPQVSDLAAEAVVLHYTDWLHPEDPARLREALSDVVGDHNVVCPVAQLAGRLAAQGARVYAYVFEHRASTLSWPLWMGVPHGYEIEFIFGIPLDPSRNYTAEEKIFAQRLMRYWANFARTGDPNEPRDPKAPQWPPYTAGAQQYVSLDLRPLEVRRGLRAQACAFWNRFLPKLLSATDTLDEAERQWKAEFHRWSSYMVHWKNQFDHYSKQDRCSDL

On to `CC(C)=CCC[C@](C)(O[C@@H]1O[C@H](CO)[C@@H](O)[C@H](O)[C@H]1O)[C@H]1CC[C@]2(C)[C@@H]1[C@H](O)C[C@@H]1[C@@]3(C)CC[C@H](O)C(C)(C)[C@@H]3CC[C@]12C`, for which the result in the series on HUVEC [1] was Active.
For `CCCCCCCCCCCCCCCC[C@@H](O)C(=O)N[C@@H](CO[C@@H]1O[C@H](CO)[C@@H](O)[C@H](O)[C@H]1O)[C@H](O)/C=C/CC/C=C(\C)CCCCCC`, the values for the Activity entry (with HUVEC [2]; in series [4]) were “Non-toxic” and “Not Active”, respectively. In addition, the outcome with LLC-PK1, in the series with HUVEC [3] and in the series with HUVEC [1] was Active. Also, the inhibition result in series [5] is “inactive”.
